# Laboratory results taken from patent publication US20060116368A1, “4-Piperidinecarboxamide modulators of vanilloid VR1 receptor” (priority 2004, published 2006).
# What was measured:
# [1] = target: T1, Human Vanilloid Receptor 1 (Homo sapiens, UniProt Q8NER1); test: Human VR1 functional assay using FLIPR, Protocol 2; type: cell-based; settings: for % E80 Capsaicin (1.2 uM): test compound-induced calcium response (agonist mode); for % E80 Capsaicin (1.2 uM) / h % I (1 uM): HEK 293 stably transfected hVR1; for h % I (1 uM): inhibition of capsaicin (EC80)-induced calcium response; for IC50: decreased capsaicin (EC80)-induced calcium response, HEK 293 stably transfected hVR1, read-out: h IC50
# T1 construct: expressed in transfected cells; host or cells: HEK 293
# T1 sequence (Q8NER1 whole entry): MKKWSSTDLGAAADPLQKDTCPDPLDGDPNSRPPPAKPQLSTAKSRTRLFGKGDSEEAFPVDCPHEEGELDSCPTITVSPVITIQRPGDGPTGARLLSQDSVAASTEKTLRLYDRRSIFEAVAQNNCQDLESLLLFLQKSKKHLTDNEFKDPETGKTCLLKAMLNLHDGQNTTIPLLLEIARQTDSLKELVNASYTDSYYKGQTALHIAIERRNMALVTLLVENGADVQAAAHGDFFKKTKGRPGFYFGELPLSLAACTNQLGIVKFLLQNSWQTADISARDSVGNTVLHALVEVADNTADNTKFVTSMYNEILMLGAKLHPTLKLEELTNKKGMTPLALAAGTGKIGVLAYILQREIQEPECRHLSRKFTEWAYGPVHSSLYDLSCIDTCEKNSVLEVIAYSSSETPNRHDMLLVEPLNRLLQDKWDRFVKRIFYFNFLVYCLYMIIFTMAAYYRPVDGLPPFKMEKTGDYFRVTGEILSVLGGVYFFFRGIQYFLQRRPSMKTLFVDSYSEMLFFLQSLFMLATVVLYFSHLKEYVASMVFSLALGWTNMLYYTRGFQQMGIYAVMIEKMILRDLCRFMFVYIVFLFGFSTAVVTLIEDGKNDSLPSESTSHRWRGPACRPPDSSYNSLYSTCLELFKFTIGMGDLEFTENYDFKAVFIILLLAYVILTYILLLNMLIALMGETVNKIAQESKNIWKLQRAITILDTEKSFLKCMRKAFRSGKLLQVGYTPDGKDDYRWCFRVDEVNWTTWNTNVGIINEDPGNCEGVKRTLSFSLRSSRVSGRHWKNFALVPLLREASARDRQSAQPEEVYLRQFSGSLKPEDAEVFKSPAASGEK
# Description: The functional activity of the test compounds was determined by measuring changes in intracellular calcium concentration using FLIPR™ Calcium-3 Assay Kit and FLIPR™ technology.
# HEK 293 cells stably transfected with Human Vanilloid Receptor 1 were maintained at 37° C. and 5% CO2 in: Dulbecco's Modification of Eagle's Medium (4.5 g/L glucose, L-glutamine, sodium pyruvate), 10% FBS, 1× Penicillin-Streptomycin, 400 ug/mL G418 Sulfate. Approximately 24 hours prior to assay, 5,000 cells/well were plated onto a 384-well black clear bottom poly-D-lysine-coated assay plate with a well volume of 25 μL using Titertek Multidrop.
# On the day of the assay, the medium was dumped and 50 μL of dye (bulk kit vials diluted with 200 mL buffer) was loaded using Multidrop. Plates were incubated with dye at 37° C. for 30 minutes followed by 30 minutes incubation at room temperature. Then the plates were assayed by FLIPR™ with 2 additions: 12.5 μL test compound with 5 minutes data acquisition followed by 12.5 μL capsaicin at the EC80 concentration.
# The EC50 values of test compounds were calculated based on a test compound-induced calcium response at the 5-minute time point. The IC50 values of compounds were calculated based on a decreased capsaicin-induced calcium response in the presence of test compound.
# hVR1 receptors = target: T2, hVR1 receptors (Homo sapiens, UniProt Q8NER1); test: Human VR1 binding assay ([3H]RTX); settings: 1 uM; inhibition of [3H]RTX binding; membranes of HEK293 cells transfected with human VR1
# T2 construct: expressed in transfected cells; host or cells: HEK293
# T2 sequence (Q8NER1 whole entry): as above
# Description: Compounds of the present invention were tested for their ability to inhibit the binding of [^3H] RTX to hVR1 receptors in a [^3H] RTX binding assay as previously described (Zhang, Sui-Po. Improved ligand binding assays for vanilloid receptors. PCT Int. Appl. (2002), WO 0233411 A1 20020425 AN 2002:315209, and Grant, Elfrida R., Dubin, Adrienne E., Zhang, Sui-Po, Zivin, Robert A., Zhong, Zhong Simultaneous intracellular calcium and sodium flux imaging in human vanilloid receptor 1 (VR1)-transfected human embryonic kidney cells: a method to resolve ionic dependence of VR1-mediated cell death. J. Pharmacol. Exp. Ther., 2002, 300(1), 9-17.)
# HEK293 cells were transfected with human VR1 vanilloid receptors and washed with Hank's balanced Salt Solution, dissociated with cell dissociation buffer (Sigma), and then centrifuged at 1000×g for 5 min. Cell pellets were homogenized in cold 20 mM HEPES buffer, pH 7.4, containing 5.8 mM NaCl, 320 mM sucrose, 2 mM MgCl2, 0.75 CaCl2 and 5 mM KCl and centrifuged at 1000×g for 15 min. The resultant supernate was then centrifuged at 40000×g for 15 min. The pelleted membranes were stored in a freezer at −80° C.
# Approximately 120 μg protein/ml from membranes were incubated with indicated concentrations of [^3H]RTX in 0.5 ml of the HEPES buffer (pH 7.4) containing 0.25 mg/mL fatty acid-free bovine serum albumin at 37° C. for 60 min. The reaction mixture was then cooled to 4° C., added 0.1 mg α1-acid glycoprotein to each sample and incubated at 4° C. for 15 min. The samples were centrifuged at 18500×g for 15 min. The tip of the microcentrifuge tube containing the pellet was cut off. Bound radioactivity was quantified by scintillation counting. Non-specific binding was tested in the presence of 200 nM unlabeled RTX.
# Data were calculated according to the equation: % inhibition=(total binding−binding)*100/(total binding−non specific binding). Ki values were calculated using a Prism program.
# [2] = target: T1, Human Vanilloid Receptor 1; test: Human VR1 functional assay using FLIPR, Protocol 1; type: cell-based
# Outline: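 Transfected HEK 293 cells, plated 24 h before, were dye-loaded (30 min 37 °C, 30 min RT) and read by FLIPR calcium assay. Compound added with 5 min acquisition, then capsaicin at EC80. EC50 from compound-induced calcium at 5 min; IC50 from reduced capsaicin-induced response.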
Structure (SMILES),% E80 Capsaicin (1.2 uM) [1] [%],h % I (1 uM) [1] [%],IC50 [1] [nM],other results
"O=C(Nc1ccc2c(c1)NC(=O)C(C(=O)O)O2)C1CCN(c2cc(F)c(F)c(F)c2)CC1 (centres unmarked) [Example 178, 3-Oxo-6-{[1-(3,4,5-trifluoro-phenyl)-piperidine-4-carbonyl]-amino}-3,4-dihydro-2H-benzo[1,4]oxazine-2-carboxylic acid]",80,,,
"CC1(C(=O)O)Oc2ccc(NC(=O)C3CCN(c4cc(F)c(F)c(F)c4)CC3)cc2NC1=O (centres unmarked) [Example 176, 2-Methyl-3-oxo-6-{[1-(3,4,5-trifluoro-phenyl)-piperidine-4-carbonyl]-amino}-3,4-dihydro-2H-benzo[1,4]oxazine-2-carboxylic acid]",116,,,
"O=C(O)CC1Oc2ccc(NC(=O)C3CCN(c4cc(F)c(F)c(F)c4)CC3)cc2NC1=O (centres unmarked) [Example 180, (3-Oxo-6-{[1-(3,4,5-trifluoro-phenyl)-piperidine-4-carbonyl]-amino}-3,4-dihydro-2H-benzo[1,4]oxazin-2-yl)-acetic acid]",,5,,
"O=C(Nc1ccc2c(c1)NC(=O)C(CCO)O2)C1CCN(c2cc(F)c(F)c(F)c2)CC1 (centres unmarked) [Example 174, 1-(3,4,5-Trifluoro-phenyl)-piperidine-4-carboxylic acid [2-(2-hydroxy-ethyl)-3-oxo-3,4-dihydro-2H-benzo[1,4]oxazin-6-yl]-amide]",,99,4.8,
"CN1C(=O)COc2ccc(NC(=O)C3CCN(c4cc(F)c(F)c(F)c4)CC3)cc21 [Example 172, 1-(3,4,5-Trifluoro-phenyl)-piperidine-4-carboxylic acid (4-methyl-3-oxo-3,4-dihydro-2H-benzo[1,4]oxazin-6-yl)-amide]",39,,,
"CCOC(=O)C1(C)Oc2ccc(NC(=O)C3CCN(c4cc(F)c(F)c(F)c4)CC3)cc2NC1=O (centres unmarked) [Example 175, 2-Methyl-3-oxo-6-{[1-(3,4,5-trifluoro-phenyl)-piperidine-4-carbonyl]-amino}-3,4-dihydro-2H-benzo[1,4]oxazine-2-carboxylic acid ethyl ester]",,54,873,
"CCOC(=O)C1Oc2ccc(NC(=O)C3CCN(c4cc(F)c(F)c(F)c4)CC3)cc2NC1=O (centres unmarked) [Example 177, 3-Oxo-6-{[1-(3,4,5-trifluoro-phenyl)-piperidine-4-carbonyl]-amino}-3,4-dihydro-2H-benzo[1,4]oxazine-2-carboxylic acid ethyl ester]",13,,,
"O=C1COc2cccc(NC(=O)C3CCN(c4cc(F)c(F)c(F)c4)CC3)c2N1 [Example 169, 1-(3,4,5-Trifluoro-phenyl)-piperidine-4-carboxylic acid (3-oxo-3,4-dihydro-2H-benzo[1,4]oxazin-5-yl)-amide]",,9,,
"O=C1CSc2ccc(NC(=O)C3CCN(c4cc(F)c(F)c(F)c4)CC3)cc2N1 [Example 173, 1-(3,4,5-Trifluoro-phenyl)-piperidine-4-carboxylic acid (3-oxo-3,4-dihydro-2H-benzo[1,4]thiazin-6-yl)-amide]",,37,1960,
"COC(=O)CC1Oc2ccc(NC(=O)C3CCN(c4cc(F)c(F)c(F)c4)CC3)cc2NC1=O (centres unmarked) [Example 179, (3-Oxo-6-{[1-(3,4,5-trifluoro-phenyl)-piperidine-4-carbonyl]-amino}-3,4-dihydro-2H-benzo[1,4]oxazin-2-yl)-acetic acid methyl ester]",,54,890,
"O=C1COc2c(cccc2NC(=O)C2CCN(c3cc(F)c(F)c(F)c3)CC2)N1 [Example 171, 1-(3,4,5-Trifluoro-phenyl)-piperidine-4-carboxylic acid (3-oxo-3,4-dihydro-2H-benzo[1,4]oxazin-8-yl)-amide]",17,,,
"CC(=O)N1CCc2cccc(NC(=O)C3CCN(c4cccc(C(F)(F)F)c4)CC3)c21 [Example 9, 1-(3-Trifluoromethyl-phenyl)-piperidine-4-carboxylic acid (1-acetyl-2,3-dihydro-1H-indol-7-yl)-amide]",,,,"h Binding % I (1 uM) (hVR1 receptors): 4.8%; inhibition at 9 µM ([2]; HEK293, 9 uM, inhibition of capsaicin (EC80)-induced calcium response, HEK 293 cells transfected with hVR1, read-out: h % I (9 uM)): 48.5%; IC50 ([2]; decreased capsaicin (EC80)-induced calcium response, HEK 293 hVR1, read-out: h IC50): 5610 nM"
"O=C1COc2cc(NC(=O)C3CCN(c4cc(F)c(F)c(F)c4)CC3)ccc2N1 [Example 170, 1-(3,4,5-Trifluoro-phenyl)-piperidine-4-carboxylic acid (3-oxo-3,4-dihydro-2H-benzo[1,4]oxazin-7-yl)-amide]",,55,735,
